The test system of one assay is Mus musculus. Briefly: Dose required to induce hypercalcemia after administration in mice. The format is functional.
The next assay has as its system HL-60. Briefly: Dosage required for differentiation of HL-60 cells to monocytes. The assay is classed as functional, Homo sapiens.
Assay [1] can be described thus: Dose required to inhibit proliferation of human peripheral blood mononuclear cells (PMBC). The assay is classed as functional.

The text below walks through data of ChEMBL document CHEMBL1134051, “Synthesis and biological activity of the 1alpha,25-dihydroxyvitamin D3 diastereomer with unnatural configuration at the rings C/D side-chain moiety” (2001).

The structures appear in SMILES notation.

As to `C=C1/C(=C\C=C2/CCC[C@]3(C)[C@@H]([C@H](C)CCCC(C)(C)O)CC[C@@H]23)C[C@@H](O)C[C@@H]1O` [CALCITRIOL], the Dose in the assay with Mus musculus was 0.1 µg/kg.

Turning to `C=C1/C(=C\C=C2/CCC[C@]3(C)[C@@H]2CC[C@H]3[C@@H](C)CCCC(C)(C)O)C[C@@H](O)C[C@@H]1O`, the Dose (in the assay with HL-60; in assay [1]) was 100 nM in each case.
